According to patent EP0440298A1, “Topical preparations for treating human nails” (BROCADES PHARMA B.V., priority 1990, dated 1991):

What was measured:
[1] = Weight increase of nail clippings during immersion in a lotion (Example 1); set-up: species or system Human
Method: Solutions (lotions) were prepared, containing (v/v) 40% of distilled water, 40% of methyl ethyl ketone and 20% of isopropyl alcohol.
To these lotions were added salicylic acid, NAC, 1,4-dithiothreitol or mercaptoethylamine, in w/v concentrations as further specified in Table 1.
To distilled water were added glutathione, mercaptoethanol or urea, in w/v concentrations as further specified in Table 1.
(§1) Human nail clippings were immersed in the test and control lotions at ambient temperature and their weight increase expressed as % of their original weight.

[2] = Comparison of sulfhydryl compounds: weight increase of nail clippings during immersion in a lotion (Example 10); set-up: species or system human; settings: 0.1 M in lotion of 50% v/v ethanol in distilled water
Method: as §1
The effects of 0.1 M of each of NAC (pH 2.3), 1,4-dithiothreitol (DTT, not claimed, pH 4.5) and ammonium thioglycolate (ATG, not claimed, pH 9.0), in a lotion consisting of 50% v/v ethanol in distilled water were compared, as in Example 1. The immersion period of the human nail clippings in the control and test lotions was 72 hours.

[3] = type: in vitro ADME, human
Method: (§2) On human nail discs of 6 mm diameter were mounted 1.5 cm pieces of tubing of 4 mm outer and 3 mm inner diameter, in each of which was poured 30 µl of one of the above lotions (n = 2 x 3). The free (ventral) surfaces of the nail discs were kept moist on a pad soaked in saline.
(§3) After 48 hours of incubation at 30°C and the discs were sectioned (50 µm) parallel to their dorsal surface, using a freeze-microtome. Radioactivity was measured in the separate sections, after which the amount of penetrated oxiconazole was calculated.
To lotions consisting of 50% v/v of ethanol in distilled water were added 0.1 M of NAC (pH 2.3), of 1,4-dithiothreitol (DTT, not claimed, pH 4.5) or of ammonium thioglycolate (ATG, not claimed, pH 9.0), as in Example 10. To all three solutions was also added 1% w/v of oxiconazole, containing a known amount (1 µCi per 30 µl) of radioactive ¹⁴C oxiconazole. These lotions were tested in an experimental set-up as in Examples 6 and 9.

[4] = Penetration of eosine in nail clippings after dorsal application of a film-forming lotion (Example 4); type: in vitro ADME, Human; settings: after 6 days of film-forming lotion treatment, then 24 hours in 1% eosine solution without NAC
Method: (§4) A film-forming lotion was prepared, consisting by weight of 17.5 parts of distilled water, 17.5 parts of ethanol, 20 parts of acetone, 25 parts of polyvinylpyrrolidone VA-S630 and 20 parts of NAC. The control film-forming lotion lacked the NAC.
(§5) Human nail clippings (n = 2 x 3) were laid on pads soaked in saline, and the two types of film-forming lotion were painted on their dorsal surface twice a day. The weights of the clippings were determined after 3, 4, 5 and 6 days.
After the above 6 days of treatment, the (2 x 3) clippings were rinsed and placed for 24 hours in a solution of 1% eosine, as described in Example 2 (without NAC), and then further processed for the microscopic estimation of dye penetration as in Example 2. The average penetration of the dye through the NAC-penetrated nails was 48% of the nail thickness, compared to 6% in the controls.

[5] = Effect of pretreatment with NAC-containing film-forming lotion on the penetration of oxiconazole in nail discs (Example 7); type: in vitro ADME, Human
Method: A 20% w/v NAC-containing film-forming lotion and a control film-forming lotion were prepared as in Example 4.
(§6) Human nail discs of 6 mm diameter, resting with their ventral side on pads soaked with saline, were dorsally painted with these film-forming lotions (n = 2 x 3) twice daily during 5 days. Then the six nail discs were rinsed and mounted on pieces of tubing as in Example 6. Subsequently 20 mg of ¹⁴C oxiconazole was added to 30 ml of Oceral® lotion (i.e. 1% oxiconazole in an alcoholic base). Of this, 30 µl was poured into the tubings on top of the dorsal surfaces of the discs as in Example 6. The free (ventral) surfaces of the nail discs were again kept moist on a pad soaked in saline.
(§7) After 48 hours of incubation at 30°C and 60% relative humidity the discs were sectioned (50 µm) parallel to their dorsal surface, using a freeze-microtome. Radioactivity was measured in the separate sections, after which the amount of penetrated oxiconazole was calculated.

[6] = Effect of pretreatment with cream on the penetration of oxiconazole in nail discs (Example 8); type: in vitro ADME, Human; settings: pretreatment with cream twice daily during 5 days, then Oceral lotion (1% oxiconazole) 48 hours at 30°C, 60% relative humidity
Method: A NAC-containing cream and a control cream were prepared as in Example 5.
as §6, with “creams” for “film-forming lotions”
as §7

[7] = Penetration of eosine in nail clippings after immersion in a lotion (pretreatment, Example 3); type: in vitro ADME, Human; settings: pretreatment in NAC lotion lacking eosine, then 24 hours in lotion with 1% eosine lacking NAC
Method: (§8) To a similar solution (lotion) as in Example 1, consisting of (v/v) 40% distilled water, 40% of methyl ethyl ketone and 20% of isopropyl alcohol, were added (w/v) 17% of NAC and 1% of eosine.
(§9) Human nail clippings were immersed in this liquid and in the same liquid without NAC (n = 2 x 3) during 48 hours at room temperature, after which the colour penetration was estimated on microscopic freeze sections.
The same experimental set-up as in Example 2 was used, except that the nail clippings were first immersed in lotions lacking eosine, and subsequently during 24 hours in lotions containing 1% eosine but lacking NAC. n was again 2 x 3.

[8] = Effect of NAC-containing lotion on the penetration of 14C oxiconazole in nail discs (Example 6); type: in vitro ADME, human; settings: 20% w/v NAC lotion with 1% w/v oxiconazole; 48 hours at 30°C
Method: A 20% w/v NAC-containing lotion and a control lotion were prepared as in Example 1.
To both these preparations was added 1% w/v of oxiconazole, containing a known amount (1 µCi per 30 µl) of radioactive ¹⁴C oxiconazole.
as §2, §3

[9] = Penetration of the hydrophilic dye eosine in nail clippings during immersion in a lotion (Example 2); type: in vitro ADME, Human; settings: lotion with 17% NAC and 1% of eosine; immersion 48 hours at room temperature; microscopic freeze sections
Method: as §8, §9

[10] = Weight increase of nail clippings on dorsal application of a film-forming lotion (Example 4); set-up: species or system Human; settings: film-forming lotion with 20 parts of NAC painted on dorsal surface twice a day; after 3 days (no further change up to 6 days)
Method: as §4, §5

For `O[C@H](CS)[C@H](O)CS` (relative stereo) [1,4-Dithiothreitol, 1,4-dithiothreitol], the “Average % weight increase during immersion (hours)” value ([1]; 20 % w/v in lotion, 1 hour) was 21%, the “Average % weight increase during immersion (hours)” value ([1]; 20 % w/v in lotion, 3 hours) was 32% and the “Average % weight increase during immersion (hours)” value ([1]; 20 % w/v in lotion, 6 hours) was 38%. For the same molecule, the “Average % weight increase during immersion (hours)” value ([1]; 20 % w/v in lotion, 24 hours) was 51%, the “Average % weight increase during immersion (hours)” value ([1]; 20 % w/v in lotion, 48 hours) was 50% and the “Average % weight increase during immersion (hours)” value ([1]; 20 % w/v in lotion, 72 hours) was 58%. For the same molecule, the “Average % weight increase after immersion during 72 hours” value [2] was 49% and the “Average amount of oxiconazole (μg), Total” value (“Average amount” for short) [3] was 10.02 µg.

With `N[C@@H](CCC(=O)N[C@@H](CS)C(=O)NCC(=O)O)C(=O)O` [Glutathione, glutathione] the “Average % weight increase during immersion (hours)” value ([1]; 10 % w/v in distilled water, 1 hour) was 30%, the “Average % weight increase during immersion (hours)” value ([1]; 10 % w/v in distilled water, 3 hours) was 32% and the “Average % weight increase during immersion (hours)” value ([1]; 10 % w/v in distilled water, 6 hours) was 33%. For the same molecule, the “Average % weight increase during immersion (hours)” value ([1]; 10 % w/v in distilled water, 24 hours) was 44%, the “Average % weight increase during immersion (hours)” value ([1]; 10 % w/v in distilled water, 48 hours) was 58% and the “Average % weight increase during immersion (hours)” value ([1]; 10 % w/v in distilled water, 72 hours) was 61%.

With `CC(=O)N[C@@H](CS)C(=O)O` [NAC, N-acetyl-cysteine] the “average penetration of the dye, % of the nail thickness” value [4] was 48%, the “Average % weight increase during immersion (hours)” value ([1]; 5 % w/v in lotion, 1 hour) was 23% and the “Average % weight increase during immersion (hours)” value ([1]; 5 % w/v in lotion, 3 hours) was 32%. The “Average % weight increase during immersion (hours)” value ([1]; 5 % w/v in lotion, 6 hours) was 38%, the “Average % weight increase during immersion (hours)” value ([1]; 5 % w/v in lotion, 24 hours) was 47% and the “Average % weight increase during immersion (hours)” value ([1]; 5 % w/v in lotion, 48 hours) was 60%. For the same molecule, the “Average % weight increase during immersion (hours)” value ([1]; 5 % w/v in lotion, 72 hours) was 70%, the “Average % weight increase during immersion (hours)” value ([1]; 10 % w/v in lotion, 1 hour) was 24% and the “Average % weight increase during immersion (hours)” value ([1]; 10 % w/v in lotion, 3 hours) was 33%. For the same molecule, the “Average % weight increase during immersion (hours)” value ([1]; 10 % w/v in lotion, 6 hours) was 38%, the “Average % weight increase during immersion (hours)” value ([1]; 10 % w/v in lotion, 24 hours) was 59% and the “Average % weight increase during immersion (hours)” value ([1]; 10 % w/v in lotion, 48 hours) was 67%. The “Average % weight increase during immersion (hours)” value ([1]; 10 % w/v in lotion, 72 hours) was 79%, the “Average % weight increase during immersion (hours)” value ([1]; 20 % w/v in lotion, 1 hour) was 23% and the “Average % weight increase during immersion (hours)” value ([1]; 20 % w/v in lotion, 3 hours) was 30%. The “Average % weight increase during immersion (hours)” value ([1]; 20 % w/v in lotion, 6 hours) was 37%, the “Average % weight increase during immersion (hours)” value ([1]; 20 % w/v in lotion, 24 hours) was 60% and the “Average % weight increase during immersion (hours)” value ([1]; 20 % w/v in lotion, 48 hours) was 91%. For the same molecule, the “Average % weight increase during immersion (hours)” value ([1]; 20 % w/v in lotion, 72 hours) was 110%, the “Average % weight increase during immersion (hours)” value ([1]; 40 % w/v in lotion, 1 hour) was 24% and the “Average % weight increase during immersion (hours)” value ([1]; 40 % w/v in lotion, 3 hours) was 33%. The “Average % weight increase during immersion (hours)” value ([1]; 40 % w/v in lotion, 6 hours) was 38%, the “Average % weight increase during immersion (hours)” value ([1]; 40 % w/v in lotion, 24 hours) was 71% and the “Average % weight increase during immersion (hours)” value ([1]; 40 % w/v in lotion, 48 hours) was 110%. For the same molecule, the “Average % weight increase during immersion (hours)” value ([1]; 40 % w/v in lotion, 72 hours) was 154%, the “Average % weight increase after immersion during 72 hours” value [2] was 72% and the “average radioactivity in the three pads under the discs” value ([5]; pretreatment with film-forming lotion 5 days, then 14C oxiconazole in Oceral lotion 48 hours) was 7.53%. For the same molecule, the “average total uptake of oxiconazole (expressed as a % of the total amount of oxiconazole applied)” value ([5]; pretreatment with film-forming lotion twice daily during 5 days, then Oceral lotion (1% oxiconazole) 48 hours at 30°C, 60% relative humidity) was 3.25%, the “Average amount” value [3] was 15.17 µg and the “average total uptake of oxiconazole (expressed as a % of the total amount of oxiconazole applied)” value [6] was 4.0%. The “average penetration of the dye” value [7] was 19%, the “average total uptake of oxiconazole (expressed as a % of the total amount of oxiconazole applied)” value [8] was 4.94% and the “average penetration of the dye, % of the total nail thickness” value [9] was 27.5%. The “weight increase of clippings” value [10] was 34%.

In the case of `O=C(O)CS` [Ammonium thioglycolate, ammonium thioglycolate], the “Average % weight increase after immersion during 72 hours” value [2] is reported as 52% and the “Average amount” value [3] is reported as 2.34 µg.

For `NCCS` [Mercaptoethyl-amine, mercaptoethylamine], the “Average % weight increase during immersion (hours)” value ([1]; 20 % w/v in lotion, 1 hour) was 10%, the “Average % weight increase during immersion (hours)” value ([1]; 20 % w/v in lotion, 3 hours) was 16% and the “Average % weight increase during immersion (hours)” value ([1]; 20 % w/v in lotion, 6 hours) was 21%. The “Average % weight increase during immersion (hours)” value ([1]; 20 % w/v in lotion, 24 hours) was 38%, the “Average % weight increase during immersion (hours)” value ([1]; 20 % w/v in lotion, 48 hours) was 55% and the “Average % weight increase during immersion (hours)” value ([1]; 20 % w/v in lotion, 72 hours) was 64%.

For `NC(N)=O` [Urea, urea], the “Average % weight increase during immersion (hours)” value ([1]; 50 % w/v in distilled water, 1 hour) was 22%, the “Average % weight increase during immersion (hours)” value ([1]; 50 % w/v in distilled water, 3 hours) was 24% and the “Average % weight increase during immersion (hours)” value ([1]; 50 % w/v in distilled water, 6 hours) was 32%. The “Average % weight increase during immersion (hours)” value ([1]; 50 % w/v in distilled water, 24 hours) was 35%, the “Average % weight increase during immersion (hours)” value ([1]; 50 % w/v in distilled water, 48 hours) was 36% and the “Average % weight increase during immersion (hours)” value ([1]; 50 % w/v in distilled water, 72 hours) was 37%.

In the case of `O=C(O)c1ccccc1O` [Salicylic acid], the “Average % weight increase during immersion (hours)” value ([1]; 14 % w/v in lotion (water/methyl ethyl ketone/isopropyl alcohol), 1 hour, ambient temperature) is reported as 17%, the “Average % weight increase during immersion (hours)” value ([1]; 14 % w/v in lotion, 3 hours) is reported as 24% and the “Average % weight increase during immersion (hours)” value ([1]; 14 % w/v in lotion, 6 hours) is reported as 26%. For the same molecule, the “Average % weight increase during immersion (hours)” value ([1]; 14 % w/v in lotion, 24 hours) was 29%, the “Average % weight increase during immersion (hours)” value ([1]; 14 % w/v in lotion, 48 hours) was 30% and the “Average % weight increase during immersion (hours)” value ([1]; 14 % w/v in lotion, 72 hours) was 30%.
